According to publication PMC3530479, “Bestrophin-Encoded Ca^2+-Activated Cl^− Channels Underlie a Current with Properties Similar to the Native Current in the Moth Spodoptera littoralis Olfactory Receptor Neurons” (PLoS ONE, 2012):

Molecular target: T1, SlitBest1b (Spodoptera littoralis, UniProt I6YK90)
T1 construct: full open reading frame without stop codon in pCINeo/IRES-GFP, expressed transiently in CHO-K1 cells
T1 sequence (I6YK90 1-707): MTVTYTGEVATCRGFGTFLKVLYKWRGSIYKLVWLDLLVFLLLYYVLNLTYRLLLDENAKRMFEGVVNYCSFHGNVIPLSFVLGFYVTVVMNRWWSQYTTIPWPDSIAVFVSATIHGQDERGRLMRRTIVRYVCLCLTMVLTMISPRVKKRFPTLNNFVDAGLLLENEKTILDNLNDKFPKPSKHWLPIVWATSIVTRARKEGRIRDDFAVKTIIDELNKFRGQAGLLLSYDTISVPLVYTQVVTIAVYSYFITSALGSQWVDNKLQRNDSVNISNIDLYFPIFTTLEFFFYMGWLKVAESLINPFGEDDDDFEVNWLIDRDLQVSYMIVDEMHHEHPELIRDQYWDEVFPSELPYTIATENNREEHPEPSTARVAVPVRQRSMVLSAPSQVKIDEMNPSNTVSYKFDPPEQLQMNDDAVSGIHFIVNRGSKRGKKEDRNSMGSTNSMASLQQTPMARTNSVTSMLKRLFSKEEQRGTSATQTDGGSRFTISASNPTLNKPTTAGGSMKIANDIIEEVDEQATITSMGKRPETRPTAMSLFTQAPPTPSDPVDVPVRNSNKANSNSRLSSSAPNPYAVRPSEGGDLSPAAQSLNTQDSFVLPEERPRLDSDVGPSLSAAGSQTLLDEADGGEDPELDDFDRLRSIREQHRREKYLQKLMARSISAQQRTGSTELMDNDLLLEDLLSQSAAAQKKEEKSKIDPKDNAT
Assay: whole-cell patch clamp, steady-state Ca2+-activated Cl- current in transfected CHO-K1 cells
Format: cell-based
From the text: whole-cell patch clamp, steady-state Ca2+-activated Cl- current in transfected CHO-K1 cells on SlitBest1b

Row | inhibition at 100 µM [%] | inhibition at 300 µM [%] | SMILES
1 | 101 ± 7.6 | – | O=C(O)c1cc([N+](=O)[O-])ccc1NCCCc1ccccc1 [NPPB, 5-nitro-2-(3-phenylpropylamino) benzoic acid]
2 | – | 65.1 ± 8.9 | O=C(O)c1cccnc1Nc1cccc(C(F)(F)F)c1 [niflumic acid]
3 | 78.7 ± 8.2 | – | O=C(O)c1ccccc1Nc1cccc(C(F)(F)F)c1 [flufenamic acid]
